Drawing on patent US11878975B2, “Substituted indole compounds useful as TLR inhibitors” (BRISTOL-MYERS SQUIBB COMPANY, priority 2017, dated 2024), this text covers IC50 for 19 molecules.

Common to all, as to assay type: cell-based
In one assay the target is T1, human TLR7 (Homo sapiens, UniProt Q9NYK1).
T1 construct: host or cells: HEK-Blue cells
T1 sequence (Q9NYK1 27-1049): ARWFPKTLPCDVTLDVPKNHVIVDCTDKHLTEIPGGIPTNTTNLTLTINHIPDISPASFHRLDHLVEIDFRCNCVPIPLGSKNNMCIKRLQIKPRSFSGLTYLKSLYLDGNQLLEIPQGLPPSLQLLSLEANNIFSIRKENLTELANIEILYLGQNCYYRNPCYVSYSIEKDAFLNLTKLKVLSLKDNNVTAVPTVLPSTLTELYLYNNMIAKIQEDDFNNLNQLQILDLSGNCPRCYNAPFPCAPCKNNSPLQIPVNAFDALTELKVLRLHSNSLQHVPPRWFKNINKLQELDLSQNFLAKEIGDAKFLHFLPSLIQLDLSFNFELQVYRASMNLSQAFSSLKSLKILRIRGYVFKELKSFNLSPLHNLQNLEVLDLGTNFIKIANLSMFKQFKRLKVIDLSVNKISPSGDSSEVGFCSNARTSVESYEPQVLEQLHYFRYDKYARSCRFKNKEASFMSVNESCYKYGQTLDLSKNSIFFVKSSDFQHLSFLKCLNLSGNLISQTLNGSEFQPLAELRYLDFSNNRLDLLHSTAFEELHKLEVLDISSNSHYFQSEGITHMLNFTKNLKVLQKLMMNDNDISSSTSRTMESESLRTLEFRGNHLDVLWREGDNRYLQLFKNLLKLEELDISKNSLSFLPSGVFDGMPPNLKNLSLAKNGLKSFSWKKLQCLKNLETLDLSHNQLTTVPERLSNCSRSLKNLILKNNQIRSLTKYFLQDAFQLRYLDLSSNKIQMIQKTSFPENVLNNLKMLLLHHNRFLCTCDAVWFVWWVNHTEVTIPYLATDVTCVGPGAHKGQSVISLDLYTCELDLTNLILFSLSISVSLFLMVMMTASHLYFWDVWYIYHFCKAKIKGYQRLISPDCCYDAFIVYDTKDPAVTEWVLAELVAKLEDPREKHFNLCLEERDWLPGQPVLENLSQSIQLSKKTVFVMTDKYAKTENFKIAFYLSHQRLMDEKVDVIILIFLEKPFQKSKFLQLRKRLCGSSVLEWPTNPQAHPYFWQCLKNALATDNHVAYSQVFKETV
As to the kind of experiment: TLR7 inhibition reporter assay (HEK-Blue cells, SEAP reporter, gardiquimod stimulation). Particulars: HEK-Blue cells overexpressing human TLR7, SEAP reporter, gardiquimod 7.5 μM. The procedure, abridged:
(§1)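 HEK-Blue cells with NF-κB/AP-1-driven SEAP reporter, pre-treated 30 min at room temperature with compound (0.05 nM-50 μM). Stimulants: gardiquimod 7.5 μM (TLR7), R848 15.9 μM (TLR8) or ODN2006 5 nM (TLR9). SEAP measured after 22 h at 37° C.; percent inhibition versus agonist-plus-DMSO and known-inhibitor wells.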

For another assay, the target named is T2, human TLR8 (Homo sapiens, UniProt Q9NR97).
T2 construct: host or cells: HEK-Blue cells
T2 sequence (Q9NR97 27-1041): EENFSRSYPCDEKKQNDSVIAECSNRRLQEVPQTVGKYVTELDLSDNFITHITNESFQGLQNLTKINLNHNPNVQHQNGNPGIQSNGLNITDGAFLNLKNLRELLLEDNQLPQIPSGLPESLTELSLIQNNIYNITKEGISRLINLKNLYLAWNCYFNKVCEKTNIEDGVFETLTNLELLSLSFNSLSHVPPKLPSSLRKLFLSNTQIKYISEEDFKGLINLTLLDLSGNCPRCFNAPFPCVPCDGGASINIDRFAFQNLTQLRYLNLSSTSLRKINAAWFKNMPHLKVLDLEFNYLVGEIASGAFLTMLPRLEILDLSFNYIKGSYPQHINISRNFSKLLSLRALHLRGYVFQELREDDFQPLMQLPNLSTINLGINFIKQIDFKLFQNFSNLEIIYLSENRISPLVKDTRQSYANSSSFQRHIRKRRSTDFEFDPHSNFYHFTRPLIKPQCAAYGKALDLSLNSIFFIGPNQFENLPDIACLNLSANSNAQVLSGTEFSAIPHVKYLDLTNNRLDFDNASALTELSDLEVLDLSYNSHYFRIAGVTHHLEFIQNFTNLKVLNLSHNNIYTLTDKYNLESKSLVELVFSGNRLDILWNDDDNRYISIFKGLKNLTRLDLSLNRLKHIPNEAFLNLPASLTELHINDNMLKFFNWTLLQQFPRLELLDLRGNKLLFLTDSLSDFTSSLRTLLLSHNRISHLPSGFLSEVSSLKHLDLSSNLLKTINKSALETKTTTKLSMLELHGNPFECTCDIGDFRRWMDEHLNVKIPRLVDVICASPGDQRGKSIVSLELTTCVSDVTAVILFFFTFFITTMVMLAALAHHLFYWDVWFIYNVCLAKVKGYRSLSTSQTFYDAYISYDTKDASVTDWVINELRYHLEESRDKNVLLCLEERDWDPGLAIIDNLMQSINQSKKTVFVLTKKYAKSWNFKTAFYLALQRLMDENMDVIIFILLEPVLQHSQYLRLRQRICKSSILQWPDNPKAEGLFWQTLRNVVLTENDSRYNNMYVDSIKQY
Briefly: TLR8 inhibition reporter assay (HEK-Blue cells, SEAP reporter, R848 stimulation). Particulars: HEK-Blue cells overexpressing human TLR8, SEAP reporter, R848 15.9 μM. The procedure, abridged: as §1
(In general: In a reporter assay the amount or activity of a reporter protein is the signal.)

A further assay has as its target T3, human TLR9 (Homo sapiens, UniProt Q9NR96).
T3 construct: host or cells: HEK-Blue cells
T3 sequence (Q9NR96 26-1032): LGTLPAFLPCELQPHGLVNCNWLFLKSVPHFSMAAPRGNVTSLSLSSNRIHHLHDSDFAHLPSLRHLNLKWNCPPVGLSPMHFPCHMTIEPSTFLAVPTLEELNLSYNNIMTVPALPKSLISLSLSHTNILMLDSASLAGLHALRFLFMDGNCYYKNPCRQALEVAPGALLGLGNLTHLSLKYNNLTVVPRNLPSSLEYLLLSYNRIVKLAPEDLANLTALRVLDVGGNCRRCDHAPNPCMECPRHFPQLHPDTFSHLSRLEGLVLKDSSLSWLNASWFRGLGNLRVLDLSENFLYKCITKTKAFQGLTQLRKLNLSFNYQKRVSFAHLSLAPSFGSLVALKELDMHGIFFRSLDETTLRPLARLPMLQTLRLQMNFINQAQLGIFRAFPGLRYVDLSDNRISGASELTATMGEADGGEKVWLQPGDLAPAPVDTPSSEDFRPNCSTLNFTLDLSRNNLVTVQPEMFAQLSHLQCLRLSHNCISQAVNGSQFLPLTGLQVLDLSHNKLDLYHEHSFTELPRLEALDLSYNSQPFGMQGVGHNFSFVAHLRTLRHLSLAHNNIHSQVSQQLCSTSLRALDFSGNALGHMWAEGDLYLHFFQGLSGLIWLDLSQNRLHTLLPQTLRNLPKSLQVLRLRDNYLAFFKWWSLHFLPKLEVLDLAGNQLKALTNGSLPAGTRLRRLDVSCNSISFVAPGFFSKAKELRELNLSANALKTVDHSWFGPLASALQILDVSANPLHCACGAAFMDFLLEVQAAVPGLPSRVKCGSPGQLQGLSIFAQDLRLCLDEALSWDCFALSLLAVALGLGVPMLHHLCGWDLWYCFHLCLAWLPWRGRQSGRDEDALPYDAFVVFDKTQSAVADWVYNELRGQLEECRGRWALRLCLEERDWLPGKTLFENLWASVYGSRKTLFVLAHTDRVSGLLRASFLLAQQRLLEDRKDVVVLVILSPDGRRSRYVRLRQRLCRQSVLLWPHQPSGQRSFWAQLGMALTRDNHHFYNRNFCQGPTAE
As to the kind of experiment: TLR9 inhibition reporter assay (HEK-Blue cells, SEAP reporter, ODN2006 stimulation). Particulars: HEK-Blue cells overexpressing human TLR9, SEAP reporter, ODN2006 5 nM. The gist of the method: as §1

A word on the pIC50: it is the IC50 on a negative log10 scale, so that one unit is a factor of ten. Lower therefore signals a high IC50.

pIC50: −log10 of the molar value. Some results are limits rather than exact numbers.

For the molecule `COc1cc(-c2[nH]c3ccc(C4CCCN(C5COC5)C4)cc3c2C(C)C)cn2ncnc12` (stereo not drawn) [Example 237], the pIC50 against human TLR7 is 7.82; against human TLR8, 7.42; at human TLR9, 4.67.
In the case of `COc1cc(-c2[nH]c3ccc(C4CCCN(CCS(C)(=O)=O)C4)cc3c2C(C)C)cn2ncnc12` (stereo not drawn) [Example 253], the pIC50 at human TLR7 is 8.30; against human TLR8 it was 8.36; at human TLR9 it was 5.21.
On the same counts, the results for `CNCC(=O)NC1CCC(c2ccc3[nH]c(-c4cc(C)nc(C)c4)c(C(C)C)c3c2)CC1` (single isomer, unassigned) [Example 129] are 9.52, 8.41 and 6.26.
On to `Cc1c(-c2[nH]c3ccc(C4CN(CCS(C)(=O)=O)C4)cc3c2C(C)C)cn(C)c(=O)c1C` [Example 483], for which the pIC50 on human TLR7 was 7.21; against human TLR8, 8.06; on human TLR9, 4.64.
As to `Cc1c(-c2[nH]c3ccc(C4CN(CC(N)=O)CCO4)cc3c2C(C)C)cn2ncnc2c1C` (stereo not drawn) [Example 319], the pIC50 is 7.85 on human TLR7, 7.62 against human TLR8 and less than 4.30 on human TLR9.
Consider `CNCC(=O)N1CCCC(c2ccc3[nH]c(-c4cc(OC)c5ncnn5c4)c(C(C)C)c3c2)C1` (stereo not drawn) [Example 211, 1-(3-(3-isopropyl-2-(8-methoxy-[1,2,4]triazolo[1,5-a]pyridin-6-yl)-1H-indol-5-yl)piperidin-1-yl)-2-(methylamino)ethan-1-one], for which the pIC50 at human TLR7 was 8.52; on human TLR8, 7.96; against human TLR9 it was 5.10.
Turning to `Cc1cc(-c2[nH]c3ccc(C4CCC(O)CC4)cc3c2C(C)C)cc(C)n1` (single isomer, unassigned) [Example 172, 4-(2-(2,6-dimethylpyridin-4-yl)-3-isopropyl-1H-indol-5-yl)cyclohexanol], the pIC50 is 8.10 at human TLR7, 7.46 against human TLR8 and 4.80 on human TLR9.
Consider `CNC(=O)CN1CCCC(c2ccc3[nH]c(-c4cc(OC)c5ncnn5c4)c(C(C)C)c3c2)C1` (stereo not drawn) [Example 228], for which the pIC50 at human TLR7 is 8.70; on human TLR8 it was 8.00; at human TLR9, 5.31.
Regarding `Cc1cc(-c2[nH]c3ccc(C4CCC(N(C)C)CC4)cc3c2C(C)C)cc(C)n1` (single isomer, unassigned) [Example 53], the pIC50 against human TLR7 was 9.26; on human TLR8, 8.54; at human TLR9, 6.22.
For `COc1cc(-c2[nH]c3ccc(C4CN(C(=O)CN5CCS(=O)(=O)CC5)CCO4)cc3c2C(C)C)cn2ncnc12` (stereo not drawn) [Example 360], the negative-log IC50 (pIC50) at human TLR7 is 7.96; at human TLR8 it was 7.17; against human TLR9 it was less than 4.30.
In the case of `COc1cc(-c2[nH]c3ccc(C4CCC(N)CC4)cc3c2C(C)C)cn2ncnc12` (single isomer, unassigned) [Example 1, 4-(3-isopropyl-2-(8-methoxy-[1,2,4]triazolo[1,5-a]pyridin-6-yl)-1H-indol-5-yl) cyclohexanamine], the pIC50 is 9.31 on human TLR7, 8.89 at human TLR8 and 6.10 against human TLR9.
In the same order, the values of `Cc1c(-c2[nH]c3ccc(CC4CNC4)cc3c2C(C)C)cn2ncnc2c1C` [Example 399, 5-[(azetidin-3-yl)methyl]-2-{7,8-dimethyl-[1,2,4]triazolo[1,5-a]pyridin-6-yl}-3-(propan-2-yl)-1H-indole] are 7.96, 8.01 and 5.71.
For `CNC(=O)CN1CCCC(c2ccc3[nH]c(-c4cn5ncnc5c(C)c4C)c(C(C)C)c3c2)C1` (stereo not drawn) [Example 232], the pIC50 is 8.05 on human TLR7, 8.09 against human TLR8 and 4.79 at human TLR9.
In the same order, the values of `Cc1cc(-c2[nH]c3ccc([C@@H]4C[C@H]4C(=O)NC4CC5CCN4CC5)cc3c2C(C)C)ccn1` (stereo partly drawn) [Example 461] are 7.07, 7.52 and 6.33.
In the same order, the values of `COc1cc(-c2[nH]c3ccc(C4CCC(N5CC[C@H](N(C)C)C5)CC4)cc3c2C(C)C)cn2ncnc12` (stereo partly drawn) [Example 33] are 8.70, 8.47 and 6.31.
On the same counts, the results for `Cc1c(-c2[nH]c3ccc(C4CC(NC(=O)CN(C)C)C4)cc3c2C(C)C)cn(C)c(=O)c1C` (stereo not drawn) [Example 490] are 8.70, 9.00 and 4.87.
`CCCN1CC(c2ccc3[nH]c(-c4cn(C)c(=O)c(C)c4C)c(C(C)C)c3c2)C1` [Example 488]: the figures for the pIC50 against human TLR7, on human TLR8 and at human TLR9 were 7.66, 8.22 and 5.37, respectively.
Regarding `COCCN1CCOC(c2ccc3[nH]c(-c4cc(OC)c5ncnn5c4)c(C(C)C)c3c2)C1` (stereo not drawn) [Example 345], the pIC50 at human TLR7 is 8.22; against human TLR8 it was 7.92; on human TLR9, 5.06.
As for `Cc1c(-c2[nH]c3ccc(C4CN(C(=O)CN(C)C)CCO4)cc3c2C(C)C)cn2ncnc2c1C` (stereo not drawn) [Example 330], the values for the pIC50 against human TLR7, at human TLR8 and against human TLR9 were 9.00, 8.47 and 5.48, respectively.
